# Read-outs that look alike come from different tables or passages of the source.
# How the values were obtained:
# UVB-irradiated mice skin = assay: In vivo efficacy: skin melanin after UVB irradiation, intradermal injection or topical administration (Example 4B/4C); settings: for Melanin Mean ± SD (UVB group = 100.0): treatment period 3 weeks
# Description: The IM01 formulation was investigated for in vivo efficacy via intradermal injection, either twice a week (IM01-ID/L) or once a day (IM01-ID/H). [table] The IM01 formulation was investigated for in vivo efficacy via topical administration (IM01-T), following the study design provided in Table 16 below. [table]
# B16-F10 cells [1] = assay: In vitro efficacy test: melanin content after α-MSH induction (Example 3); format: cell-based, mouse
# Description: Alpha-melanocyte-stimulating hormone (α-MSH) is a peptide hormone capable of inducing melanin production. In this study, the effects of 4-[(E)-2-(3,5-dihydroxyphenyl)ethenyl]benzene-1,3-diol samples (having different concentrations of 4-[(E)-2-(3,5-dihydroxyphenyl)ethenyl]benzene-1,3-diol) on inhibition of melanin production were investigated.
# B16-F10 cells were seeded in a 96-well plate at a density of 1×10^5 cells/well and cultured for 24 hours. The cells were then incubated with 0.1 μM α-MSH for 24 hours to include melanin production. The 4-[(E)-2-(3,5-dihydroxyphenyl)ethenyl]benzene-1,3-diol samples with different concentrations were then added to the cultured cells, which were cultured for an additional 24 hours. No α-MSH was used for the vehicle control group.
# After the cells were washed once with 1 mL of 1×PBS, add 300 μL of 1×Trypsin-EDTA, they were placed in a 37° C. incubator for 5 minutes. Finally, 1 mL of DMEM was added to the cells, and the number of cells were counted by Trypan blue staining.
# Cell suspension was centrifuged at 1500 g for 5 minutes at room temperature, followed by supernatant removal and air-dry of the pellet for 15 minutes. 1 N NaOH (containing 10% DMSO) was added to break up the pellet, followed by shaking by ultrasonic waves for 30 minutes and heating in a water bath at 80° C. for 1.5 hours. After cooling down, the suspension was taken and measured for absorbance at 405 nm. Results were calculated by deducting the reagent blank from the absorbance value at 405 nm and divided by the average absorbance value of the α-MSH Group.
# B16-F10 cells [2] = assay: In vitro efficacy comparison: melanin content, α-MSH 0.5 h then test article 30 h (Example 5); format: cell-based, mouse; settings: for Melanin content (%) Mean: α-MSH 0.5 h then TA 30 h
# Description: B16-F10 cells were seeded in a 96-well plate. Except the vehicle group, cells of the other groups were cultured in the presence of α-MSH for 0.5 hours first. The compositions for examination were then added to the culture medium and the cells were further cultured for 30 hours. The rest of the experimental conditions and procedures were similar to those described in Example 3. Afterwards, the cells were collected to evaluate the effect of 4-[(E)-2-(3,5-dihydroxyphenyl)ethenyl]benzene-1,3-diol compositions (IM01 Group) and Arbutin and 5-[(E)-2-(4-hydroxyphenyl)ethenyl]benzene-1,3-diol (IM00 Group) compositions on reducing melanin levels. The experimental design is summarized in Table 18 and results shown in both Table 18 and FIG. 5.
# HRM-2 mice = assay: In vivo efficacy: skin melanin content after UVB irradiation, different administration routes (Example 4A)
# Description: The experiment tested a total of 20 mice using conventional diets in the adaptation period, the induction period, and the test period. After 7 days of adaptation, the mice were randomly divided into a control group and a UVB-c group according to body weight and body weight changes, so that no statistical difference in average body weight and body weight changes were noticeable among the groups. The UVB-c group was subjected to 150 mJ/cm^2/day of UVB irradiation with a frequency of irradiating the back of the mice three times a week.
# Injection frequency was once a week, three times in total, with an average injection area of 6 cm^2 skin each time. The IM01—Topical group and the color cream group were administered by smearing once a day for a total of 21 days. […] During the treatment period, the backs of the mice were irradiated with 150 mJ/cm^2/day of UVB three times a week until sacrificed. It should be noted that the timing of UVB exposure and drug administration were staggered.
# After sacrificing the mice on day 22, the skin of treatment area was collected and subjected to heat extraction with 0.4 mL NaOH for 1 hour. […] The experimental data were expressed as mean±standard deviation (n=3-5), using Student's t-test analysis, #p<0.05, ##p<0.01 compared with control group; *p<0.05, **p<0.01 compared with UVB-c group.
# B16-F10 cells [3] = assay: In vitro melanin content versus arbutin and hydroquinone (Example 6); format: cell-based, mouse
# Description: Except the vehicle group, cells of the other groups were cultured with α-MSH for 24 hours first. The compositions for investigation (see Tables 19 and 20) were then added to the culture medium and the cells were further cultured for 24 hours. The rest of the experimental operation process was similar to that described in Example 3. […] [table] [table]
# B16-F10 cell line [4] = format: cell-based, mouse; settings: for Relative cell viability (%): mouse
# Description: (§1) Table 23 below lists the study design for evaluating EC50 values of IM01, which contains 4-[(E)-2-(3,5-dihydroxyphenyl)ethenyl]benzene-1,3-diol.
# (§2) Table 25 below lists the study design for evaluating EC50 values of IM01, which contains 4-[(E)-2-(3,5-dihydroxyphenyl)ethenyl]benzene-1,3-diol.
# B16-F10 cell line [5] = assay: In vitro whitening efficacy: melanin content (Example 7); format: cell-based, mouse
# Description: as §1, §2
# [6] = IM01-ID/H: ID, 23 mg/mL, once a day
# [7] = IM01-ID/L: ID, 23 mg/mL, twice a week
# [8] = IM01-T: topical, 45 mg/mL, once a day
smiles,measurement,setting,value
"Oc1cc(O)cc(/C=C/c2ccc(O)cc2O)c1 [IM01, 4-[(E)-2-(3,5-dihydroxyphenyl)ethenyl]benzene-1,3-diol]",Reduction of melanin production,UVB-irradiated mice skin; [6],23.1%
same,Melanin Mean ± SD (UVB group = 100.0),UVB-irradiated mice skin; [6],76.9 ± 12.7
same,Reduction of melanin production,UVB-irradiated mice skin; [7],13.9%
same,Melanin Mean ± SD (UVB group = 100.0),UVB-irradiated mice skin; [7],86.1 ± 14.5
same,Reduction of melanin production,UVB-irradiated mice skin; [8],21.4%
same,Melanin Mean ± SD (UVB group = 100.0),UVB-irradiated mice skin; [8],79.6 ± 12.5
same,Melanin production compared with vehicle group (without α-MSH),"B16-F10 cells [1]; IM01-C4, IM01-C5 and IM01-C6 groups (22.6, 32, 64 ppm)",lower than that of the vehicle group
same,EC50,"B16-F10 cells [1]; Mus musculus, B16-F10, printed as equal to 15.2 ppm",62 µM
same,Melanin Content Inhibition Ability (%) Mean,B16-F10 cells [1]; TA 8 ppm (IM01-C1),20.1%
same,Melanin content (%) Mean,"B16-F10 cells [1]; TA 8 ppm (IM01-C1), α-MSH 0.1 μM 24 h then TA 24 h, relative to α-MSH control",79.9%
same,Melanin Content Inhibition Ability (%) Mean,B16-F10 cells [1]; TA 11.3 ppm (IM01-C2),41.1%
same,Melanin content (%) Mean,"B16-F10 cells [1]; TA 11.3 ppm (IM01-C2), α-MSH 24 h then TA 24 h",58.9%
same,Melanin Content Inhibition Ability (%) Mean,B16-F10 cells [1]; TA 16 ppm (IM01-C3),56.8%
same,Melanin content (%) Mean,"B16-F10 cells [1]; TA 16 ppm (IM01-C3), α-MSH 24 h then TA 24 h",43.2%
same,Melanin Content Inhibition Ability (%) Mean,B16-F10 cells [1]; TA 22.6 ppm (IM01-C4),66.7%
same,Melanin content (%) Mean,"B16-F10 cells [1]; TA 22.6 ppm (IM01-C4), α-MSH 24 h then TA 24 h",33.3%
same,Melanin Content Inhibition Ability (%) Mean,B16-F10 cells [1]; TA 32 ppm (IM01-C5),74%
same,Melanin content (%) Mean,"B16-F10 cells [1]; TA 32 ppm (IM01-C5), α-MSH 24 h then TA 24 h",26.0%
same,Melanin Content Inhibition Ability (%) Mean,B16-F10 cells [1]; TA 64 ppm (IM01-C6),84.6%
same,Melanin content (%) Mean,"B16-F10 cells [1]; TA 64 ppm (IM01-C6), α-MSH 24 h then TA 24 h",15.4%
same,EC50 (melanin content),B16-F10 cells [1]; α-MSH 24 h then TA 24 h,around 15.2 ppm
same,Melanin content (%) Mean,B16-F10 cells [2]; TA 89.19 μM (IM01-20),67.4%
same,Melanin content (%) Mean,B16-F10 cells [2]; TA 178.38 μM (IM01-40),43.5%
same,"In vitro effect in reducing melanin relative to 5-[(E)-2-(4-hydroxyphenyl)ethenyl]benzene-1,3-diol and arbutin",B16-F10 cells [2]; Table 18 concentrations,better in vitro effects in reducing melanin
same,Skin color compared with UVB-c group,"HRM-2 mice; IM01-ID group and IM01-Topical group, intradermal injection or smearing",whiter and brighter than that of the UVB-c group
same,Melanin level lower than the UVB-c group by,"HRM-2 mice; IM01-ID group, intradermal, p<0.01",33.6%
same,Percentage change of melanin Mean ± SD (% of UVB-c),"HRM-2 mice; IM01-ID: intradermal, 20 mg/mL, 0.5 mg/cm^2, once a week",−33.6 ± 6.0 % of UVB-c
same,Melanin Content Mean ± SD (% of UVB-c),"HRM-2 mice; IM01-ID: intradermal, 20 mg/mL, 0.5 mg/cm^2, once a week, three times, skin collected day 22",66.4 ± 6.0 % of UVB-c
same,Melanin level lower than the UVB-c group by,"HRM-2 mice; IM01-Topical group, p<0.05",30.6%
same,Percentage change of melanin Mean ± SD (% of UVB-c),"HRM-2 mice; IM01-Topical: 20 mg/mL, 0.4-0.5 mg/cm^2, once a day",−30.6 ± 7.6 % of UVB-c
same,Melanin Content Mean ± SD (% of UVB-c),"HRM-2 mice; IM01-Topical: 20 mg/mL, 0.4-0.5 mg/cm^2, once a day for 21 days, day 22",69.4 ± 7.6 % of UVB-c
same,Effect in reducing melanin compared with Arbutin (450 μM or 900 μM) and hydroquinone (120 μM),B16-F10 cells [3]; 120 μM,better than that of the whitening agent Arbutin
same,Melanin content compared with vehicle group (no α-MSH induction),B16-F10 cells [3]; 120 μM,even lower than that of the vehicle group
same,Melanin content (%) Mean ± SD,"B16-F10 cells [3]; TA 30 μM, α-MSH 24 hr + TA 24 hr, Table 22 experiment",84.6 ± 3.6%
same,Melanin content (%) Mean ± SD,"B16-F10 cells [3]; TA 60 μM, Table 22 experiment",52.8 ± 3.8%
same,Melanin content (%) Mean ± SD,"B16-F10 cells [3]; TA 60 μM, α-MSH 24 hr + TA 24 hr, Table 21 experiment",47.6 ± 3.4%
same,Melanin content (%) Mean ± SD,"B16-F10 cells [3]; TA 120 μM, Table 21 experiment",26.2 ± 2.4%
same,Melanin content (%) Mean ± SD,"B16-F10 cells [3]; TA 120 μM, Table 22 experiment",33.9 ± 1.4%
same,Melanin content (%) Mean ± SD,"B16-F10 cells [3]; TA 180 μM, Table 22 experiment",11.7 ± 2.3%
same,Cytotoxicity,B16-F10 cell line [4],low cytotoxicity
same,Relative cell viability (%),B16-F10 cell line [4]; 8 μM,98.4 ± 2.0%
same,Relative cell viability (%),B16-F10 cell line [4]; 16 μM,96.7 ± 2.4%
same,Relative cell viability (%),B16-F10 cell line [4]; 32 μM,98.7 ± 2.2%
same,Relative cell viability (%),B16-F10 cell line [4]; 60 μM,88.5 ± 1.4%
same,Relative cell viability (%),B16-F10 cell line [4]; 64 μM,93.0 ± 1.0%
same,Relative cell viability (%),B16-F10 cell line [4]; 120 μM,84.9 ± 0.4%
same,Relative cell viability (%),B16-F10 cell line [4]; 128 μM,89.8 ± 3.7%
same,Relative cell viability (%),B16-F10 cell line [4]; 181 μM,79.9 ± 5.6%
same,Relative cell viability (%),B16-F10 cell line [4]; 256 μM,74.6 ± 7.0%
same,EC50,"B16-F10 cell line [5]; Mus musculus, B16-F10, α-MSH 24 hr + TA 24 hr, 4-256 μM, read-out: EC50 value (reduction of melanin levels induced by α-MSH)",~41.2 µM
same,Melanin content (%),"B16-F10 cell line [5]; TA 4 μM, α-MSH 24 hr + TA 24 hr, Table 24",90.2 ± 6.1%
same,Melanin content (%),"B16-F10 cell line [5]; TA 8 μM, Table 24",83.2 ± 6.9%
same,Melanin content (%),"B16-F10 cell line [5]; TA 16 μM, Table 24",81.8 ± 4.5%
same,Melanin content (%),"B16-F10 cell line [5]; TA 32 μM, Table 24",67.7 ± 7.1%
same,Melanin content (%),"B16-F10 cell line [5]; TA 60 μM (/L of IM01 and HQ), HQ vehicle DDW, Table 26",51.7 ± 2.6%
same,Melanin content (%),"B16-F10 cell line [5]; TA 64 μM, Table 24",43.0 ± 4.3%
same,Melanin content (%),"B16-F10 cell line [5]; TA 120 μM (/H of IM01 and HQ), HQ vehicle DDW, Table 26",37.7 ± 0.4%
same,Melanin content (%),"B16-F10 cell line [5]; TA 128 μM, Table 24",36.1 ± 2.9%
same,Melanin content (%),"B16-F10 cell line [5]; TA 181 μM, Table 24",34.8 ±3.5%
same,Melanin content (%),"B16-F10 cell line [5]; TA 256 μM, Table 24",25.9 ± 1.5%
same,Melanin inhibition activity compared with arbutin,"B16-F10 cell line [5]; Table 25 concentrations, FIG. 7C",much greater than arbutin
"Oc1ccc(/C=C/c2cc(O)cc(O)c2)cc1 [IM00, 5-[(E)-2-(4-hydroxyphenyl)ethenyl]benzene-1,3-diol]",Melanin content (%) Mean,B16-F10 cells [2]; TA 87.62 μM (IM00-20),98.9%
